In patent US8703951B2, “Synthesis of 4H-benzo[D]pyrrolo[1,2-A]thiazoles and indolizino[6,7-b]indole derivatives and their use as antitumor therapeutic agents” (Academia Sinica, priority 2011, dated 2014):
Where two headings read alike, the source gives them in different places.

Assays:
[1] = test system: glioma U87; experiment: In vitro cytotoxicity, Alamar blue assay, U87; type: cell-based, human
Method: (§1) Prostate cancer PC3, non-small cell lung carcinoma cells H1299, and human glioma cells U87 were purchased from the American Type Culture Collection (Rockville, Md.). OECM-1 (human gingival squamous cell carcinoma cells) was obtained from Dr C.-L. Meng (National Defense Medical College, Taiwan).^22
(§2) In preparation for in vitro cytotoxicity assays, cells were cultured at an initial density 2−5×10^4 cells per milliliter. They were maintained in a 5% CO2-humidified atmosphere at 37° C. in RPMI medium 1640 (GIBCO/BRL) containing penicillin (100 units/mL), streptomycin (100 μg/mL, GIBCO/BRL), and 5% heat-inactivated FBS. For cells grown in suspension (such as CCRF-CEM and its sublines), cytotoxicity was measured, by using XTT microculture method^23 in 96-well microtiter plates.
(§3) The cytotoxic effects of the newly synthesized compounds were determined in T-cell acute lymphocytic leukemia (CCRF-CEM) and their resistant subcell lines (CCRF-CEM/Taxol and CCRF-CEM/VBL) by the XTT assay^24 and human solid tumor cells (i.e. breast carcinoma MX-1 and colon carcinoma HCT-116) by the SRB assay^25 in a 72 h incubation using a microplate spectrophotometer as described previously.^25 After the addition of phenazine methosulfate-XTT solution, incubated at 37° C. for 6 h and absorbance at 450 and 630 nm was detected on a microplate reader (EL 340). The cytotoxicity of the newly synthesized compounds against non-small cell lung carcinoma H1299, prostate cancer PC3, oral cancer OECM-1 and glioma U87 were determined by the Alamar blue assay^26 in a 72 h incubation using a microplate spectrophotometer as described previously. After the addition of alamar blue solution, it was incubated at 37° C. for 6 h. Absorbance at 570 and 600 nm was detected on a microplate reader. IC50 values were determined from dose-effect relationship at six or seven concentrations of each drug using the CompuSyn software by Chou and Martin^27 based on the median-effect principle and plot.^28,29 Ranges given for Cisplatin were mean±SE (n=4).

[2] = test system: prostate cancer PC3; experiment: In vitro cytotoxicity, Alamar blue assay, PC3; type: cell-based, human
Method: as §1, §2, §3

[3] = test system: non-small cell lung carcinoma H1299; experiment: In vitro cytotoxicity, Alamar blue assay, H1299; type: cell-based, human
Method: as §1, §2, §3

[4] = test system: human lymphoblastic leukemia (CCRF-CEM); experiment: In vitro cytotoxicity, XTT assay, CCRF-CEM; type: cell-based
From the text: (§4) Human colon carcinoma HCT-116 cells and human prostate adenocarcinoma PC-3 cells were obtained from American Type Culture Collection (ATCC, Rockville, Md.). Human mammary carcinoma (MX-1) tumor cells were obtained from MSKCC cell bank. The CCRF-CEM human lymphoblastic leukemia cells and their vinblastine resistant subline (CCRF-CEM/VBL, 680-fold resistance in vitro) were obtained from Dr. William Beck of the University of Illinois, Chicago, and CCRF-CEM/Taxol (330-fold resistance in vitro). Resistant cells CCRF-CEM/taxol were produced by exposing the parent cells to increasing sublethal concentration (IC50-IC90) of paclitaxel for six months.
as §2, §3

[5] = test system: CCRF-CEM/VBL; experiment: In vitro cytotoxicity, XTT assay, CCRF-CEM/VBL; type: cell-based, human; details: Table 5; for IC50: vinblastine-resistant subline, XTT, 72 h, read-out: Cell Growth inhibition (IC50 μM) CCRF-CEM/VBL; for fold of cross-resistant vs IC50 of the parent cell line, CCRF-CEM/VBL: number in brackets
From the text: as §4, §2, §3

[6] = test system: oral cancer OECM-1; experiment: In vitro cytotoxicity, Alamar blue assay, OECM-1; type: cell-based, human
Method: as §1, §2, §3

[7] = test system: CCRF-CEM/Taxol; experiment: In vitro cytotoxicity, XTT assay, CCRF-CEM/Taxol; type: cell-based, human; details: Table 5; for IC50: Taxol-resistant subline, XTT, 72 h, read-out: Cell Growth inhibition (IC50 μM) CCRF-CEM/Taxol; for fold of cross-resistant vs IC50 of the parent cell line, CCRF-CEM/Taxol: number in brackets
From the text: as §4, §2, §3

[8] = test system: colon carcinoma HCT-116; experiment: In vitro cytotoxicity, SRB assay, HCT-116; type: cell-based, human
From the text: as §4, §2, §3

[9] = test system: breast carcinoma MX-1; experiment: In vitro cytotoxicity, SRB assay, MX-1; type: cell-based, human
From the text: as §4, §2, §3

[10] = Homo sapiens, NCI-H1299, Table 6, 72 h
[11] = Homo sapiens, CCRF-CEM, Table 5, 72 h incubation, read-out: Cell Growth inhibition (IC50 μM) CCRF-CEM
[12] = Homo sapiens, OECM1, Table 6, 72 h
[13] = Table 5, 72 h incubation, read-out: Cell Growth inhibition (IC50 μM) CCRF-CEM
[14] = Table 7, 72 h, read-out: IC50 (μM) CCRF/CEM

SMILES | fold of cross-resistant vs IC50 of the parent cell line, CCRF-CEM/VBL [5] [×] | fold of cross-resistant vs IC50 of the parent cell line, CCRF-CEM/Taxol [7] [×] | IC50 ([1]; Table 6, 72 h) [µM] | IC50 ([2]; Table 6, 72 h) [µM] | IC50 ([3]; Table 6, 72 h) [µM] | IC50 [4, 13] [µM] | IC50 [5] [µM] | IC50 ([6]; Table 6, 72 h) [µM] | IC50 [7] [µM] | also measured
OCc1c(CO)c2sc3ccccc3n2c1-c1ccc(F)c(F)c1 [Compound 18d, (1-(3,4-Difluorophenyl)benzo[d]pyrrolo[2,1-b]thiazole-2,3-diyl)dimethanol] | 1.47 | 100 |  |  |  |  |  |  |  | IC50 ([1]; Homo sapiens, Table 6, 72 h): 17.4 ± 1.86 µM; IC50 ([2]; Homo sapiens, Table 6, 72 h): 15.2 ± 1.86 µM; IC50 [3, 10]: 21.4 ± 3.74 µM; IC50 [4, 11]: 0.19 ± 0.02 µM; IC50 ([5]; Homo sapiens, CCRF-CEM): 0.28 ± 0.006 µM; IC50 [6, 12]: 8.48 ± 0.67 µM; IC50 ([7]; Homo sapiens, CCRF-CEM): 0.19 ± 0.004 µM
CCNC(=O)OCc1c(COC(=O)NCC)c2sc3ccccc3n2c1-c1ccc(F)c(F)c1 [Compound 19d, (1-(3,4-Difluorophenyl)benzo[d]pyrrolo[2,1-b]thiazole-2,3-diyl)bis(methylene)bis(ethylcarbamate)] | 1.47 | 1.61 | 38.5 ± 7.21 | 19.3 ± 3.44 | 10.3 ± 1.11 | 0.21 ± 0.01 | 0.31 ± 0.002 | 14.6 ± 3.39 | 0.34 ± 0.008 | IC50 ([8]; Table 6, 72 h): 1.1 ± 0.015 µM; IC50 ([9]; Table 6, 72 h): 1.49 ± 0.04 µM
Cc1c(CO)c(CO)c2sc3ccccc3n12 [Compound 18a, (1-Methylbenzo[d]pyrrolo[2,1-b]thiazole-2,3-diyl)dimethanol] | 1.91 | 1.93 |  |  |  |  |  |  |  | IC50 ([8]; Homo sapiens, HCT-116, Table 6, 72 h): 4.44 ± 0.08 µM; IC50 ([9]; Homo sapiens, Table 6, 72 h): 7.1 ± 0.037 µM; IC50 [4, 11]: 0.97 ± 0.03 µM; IC50 ([5]; Homo sapiens, CCRF-CEM): 1.86 ± 0.01 µM; IC50 ([7]; Homo sapiens, CCRF-CEM): 1.88 ± 0.007 µM
CC(C)NC(=O)OCc1c(COC(=O)NC(C)C)c(-c2ccc(Cl)cc2)n2c1Cc1c(n(C)c3ccccc13)C2 [Compound 28d, [3-(4-Chlorophenyl)-6-methyl-6,11-dihydro-5H-indolizino[6,7-b]indole-1,2-diyl]bis(methylene) (isopropylcarbamate)] |  |  |  |  |  |  |  |  |  | IC50 ([8]; Table 7, 72 h): 3.06 ± 0.067 µM; IC50 ([9]; Table 7, 72 h): 12.39 ± 0.05 µM; IC50 [4, 14]: 0.437 ± 0.003 µM
CCNC(=O)OCc1c(COC(=O)NCC)c2sc3ccccc3n2c1C [Compound 19a, (1-Methylbenzo[d]pyrrolo[2,1-b]thiazole-2,3-diyl)bis(methylene)bis(ethylcarbamate)] | 1.30 | 1.30 |  |  |  | 0.33 ± 0.01 | 0.43 ± 0.003 |  | 0.45 ± 0.013 | 
CCNC(=O)OCc1c(COC(=O)NCC)c2sc3ccccc3n2c1C1CC1 [Compound 19j, (1-Cyclopropylbenzo[d]pyrrolo[2,1-b]thiazole-2,3-diyl)bis(methylene)bis(ethylcarbamate)] | 3.18 | 4.01 | 74.5 ± 8.7 | 24.2 ± 2.96 | 20.6 ± 1.89 | 0.17 ± 0.03 | 0.54 ± 0.008 | 26.3 ± 4.44 | 0.68 ± 0.004 | 
CCNC(=O)OCc1c(COC(=O)NCC)c2sc3ccccc3n2c1-c1ccc(F)cc1 [Compound 19b, (1-(4-Fluorophenyl)benzo[d]pyrrolo[2,1-b]thiazole-2,3-diyl)bis(methylene)bis(ethylcarbamate)] | 6.42 | 5.42 | 29.2 ± 2.63 | 23.7 ± 3.05 | 13.6 ± 2.03 | 0.07 ± 0.0002 | 0.45 ± 0.033 | 11.5 ± 2.63 | 0.38 ± 0.002 | IC50 ([8]; Table 6, 72 h): 0.52 ± 0.025 µM; IC50 ([9]; Table 6, 72 h): 0.48 ± 0.005 µM
CC(C)NC(=O)OCc1c(COC(=O)NC(C)C)c2sc3ccccc3n2c1C1CC1 [Compound 20j, (1-Cyclopropylbenzo[d]pyrrolo[2,1-b]thiazole-2,3-diyl)bis(methylene)bis(iso-propyl-carbamate)] | 9.00 | 7.30 | 45.5 ± 6.19 | 13.4 ± 0.84 | 20.4 ± 1.65 | 0.1 ± 0.01 | 0.9 ± 0.011 | 9.67 ± 1.06 | 0.73 ± 0.013 | 
OCc1c(CO)c2sc3ccccc3n2c1C1CC1 [Compound 18j, (1-Cyclopropylbenzo[d]pyrrolo[2,1-b]thiazole-2,3-diyl)dimethanol] | 2.51 | 2.37 |  |  |  |  |  |  |  | IC50 ([1]; Homo sapiens, Table 6, 72 h): 28.7 ± 4.32 µM; IC50 ([2]; Homo sapiens, Table 6, 72 h): 10.7 ± 2.29 µM; IC50 [3, 10]: 13.3 ± 2.23 µM; IC50 [4, 11]: 0.97 ± 0.07 µM; IC50 ([5]; Homo sapiens, CCRF-CEM): 2.44 ± 0.01 µM; IC50 [6, 12]: 7.12 ± 0.95 µM; IC50 ([7]; Homo sapiens, CCRF-CEM): 2.31 ± 0.0048 µM
N.N.[Cl][Pt][Cl] [Cisplatin, reference compound] |  |  | 54.6 ± 3.33 | 4.71 ± 0.66 | 16.5 ± 0.9 |  |  | 2.44 ± 0.53 |  | IC50 ([1]; Table 7, 72 h): 54.6 ± 3.33 µM; IC50 ([2]; Table 7, 72 h): 4.71 ± 0.66 µM; IC50 ([3]; Table 7, 72 h): 16.5 ± 0.9 µM; IC50 ([6]; Table 7, 72 h, read-out: IC50 (μM) OECM1): 2.44 ± 0.53 µM
CC(C)NC(=O)OCc1c(COC(=O)NC(C)C)c2sc3ccccc3n2c1-c1ccc(F)c(F)c1 [Compound 20d, (1-(3,4-Difluorophenyl)benzo[d]pyrrolo[2,1-b]thiazole-2,3-diyl)bis(methylene)bis(iso-propylcarbamate)] | 0.90 | 0.57 | 74.9 ± 15.7 | 29.6 ± 1.83 | 30.8 ± 6.92 | 0.33 ± 0.001 | 0.3 ± 0.001 | 15.1 ± 1.34 | 0.19 ± 0.004 | IC50 ([8]; Table 6, 72 h): 0.41 ± 0.005 µM; IC50 ([9]; Table 6, 72 h): 1 ± 0.002 µM
CCNC(=O)OCc1c(COC(=O)NCC)c(-c2ccc(Cl)cc2)n2c1Cc1c(n(C)c3ccccc13)C2 [Compound 27d, [3-(4-Chlorophenyl)-6-methyl-6,11-dihydro-5H-indolizino[6,7-b]indole-1,2-diyl]bis(methylene)bis(ethylcarbamate)] |  |  |  |  |  |  |  |  |  | IC50 ([8]; Table 7, 72 h): 1.17 ± 0.009 µM; IC50 ([9]; Table 7, 72 h): 1.83 ± 0.082 µM; IC50 [4, 14]: 0.35 ± 0.013 µM
